Source: publication PMC3669292, “Neuroprotective Efficacy of a New Brain-Penetrating C-Abl Inhibitor in a Murine Parkinson’s Disease Model” (PLoS ONE, 2013)

How the values were obtained:
[1] = Directional permeability of drug analogues across primary BBMEC monolayers (in vitro BBB model); format: in vitro ADME, bovine; details: bovine, pH 7.4, donor 10 µM, 0–90 min, mean ± SD, n = 3; for Papp A→B at 10 µM: apical-to-basolateral, read-out: Apparent Permeability Coefficient A → B; for Papp B→A at 10 µM: basolateral-to-apical, read-out: Apparent Permeability Coefficient B → A
Description: (§1) The BBMEC were isolated by a modified method previously described. Briefly, the meninges were removed from the gray matter of fresh cow cerebral cortices and mechanically homogenized through a 100 μm mesh screen. Dispase II enzyme (5 mg/ml) reconstituted in MEM isolation media (MEM ([…]), HEPES (50 mM), polymyxin B (50 ug/ml), gentamicin (50 ug/ml) and amphotercin B (2.5 ug/ml) at pH 7.4) was added to the freshly homogenized cerebral cortical tissue (10 mg/g brain tissue) and MEM isolation media at […] was added (equal w/w of brain tissue). The mixture was placed in an incubated shaker for one hour (37°C, 150 rpm). Following this incubation, the supernatant was removed by centrifugation (10 min at 1570 rcf). […] The crude capillary pellet was collected and re-suspended in a collagenase/dispase (5 mg/ml) solution at a final concentration of 0.1% (v/w) and placed in an incubated shaker (37°C, 150 rpm) for one hour. […] The digested capillaries were centrifuged (10 min, 1700 rcf) to remove the enzymatic treatment and re-suspended in isolation media and pipetted into the percoll gradient tubes. The BBMEC cells were then separated by centrifugation (10 min at 1700 rcf). […] The BBMEC were plated (approximately 50,000 cells/cm^2 density) on collagen-coated, fibronectin-treated culture plates, and incubated in a humidified incubator (37°C with 5% (v/v) CO2). The cells were used after reaching confluence, typically 8-12 days. The concentrations of both drugs, Imatinib and INNO-406, were analyzed by a rapid HPLC separation and UV-VIS detection. […] The effluents were monitored at 223 nm and quantified using the area under the peak from standard solutions dissolved in assay II buffer (0.4 to 25 μg/ml). Assay II buffer consisted of sodium chloride (122 mM), potassium chloride (3 mM), calcium chloride (1.4 mM), magnesium sulfate (1.2 mM), sodium bicarbonate (25 mM), HEPES (10 mM), d-glucose (10 mM) and potassium phosphate (0.4 mM) at Ph of 7.4. The directional comparison of drug analogues transported in primary BBMEC monolayers was determined. These methods have been previously described, [21]. Briefly, the freshly isolated BBMEC were plated in triplicates (50,000 cells/cm^2 seeding density) on collagen-coated, fibronectin-treated polycarbonate membrane inserts, and cultured until confluence (12 mm; 0.4 μm pore size, Costar TranswellTM 12-well, Cambridge, MA). Complete culture media from confluent BBMEC monolayers was replaced 24-hours prior to the start of the experiment. The confluent monolayers were mounted in side-by-side diffusion chambers ([…]) either the apical or the basolateral sides were supplied with fresh assay II buffer with drug (donor chamber, 10 μM). Samples (100 μl) were removed from the […] compartment at various time points (0-90 min) and replaced with fresh buffer. The concentration of drug in the samples was determined spectrophotometrically by HPLC methodology reported above ([…]). The directional transport was expressed as the percent of the respective drug across the BBMEC monolayers over time (Mean ± SD, n = 3).

BBMEC monolayers = assay: as above; format: in vitro ADME, bovine; details: for Apparent Permeability Ratio A → B/B→ A: mean ± SD, n = 3
Description: as §1

[2] = Brain levels of INNO-406 in C57 mice after single i.p. injection; format: in vivo; details: for Brain level of INNO-406: C57 mice
Description: For pharmacokinetic studies, INNO-406 was injected at 2.5 mg/kg/i.p. or 10 mg/kg/i.p. in C57 mice and brains were harvested 1 h, 4 h, and 24 h after a single injection. In another study, INNO-406 was injected at 2.5 mg/kg/i.p. or 10 mg/kg/i.p. in C57 mice in the presence or absence of MPTP (4×20 mg/kg/i.p. at 2 h interval) after last injection of MPTP and brains were harvested 1 h, 4 h, and 24 h after a single injection of INNO-406. Finally, brain levels of MPP+ in C57 mice were measured 1 h, 4 h, and 24 h after single injection of MPTP (60 mg/kg/i.p.) in the presence or absence of a single injection of INNO-406 (2.5 mg/kg/i.p. or 10 mg/kg/i.p.).
The concentrations of both drugs, Imatinib and INNO-406, were analyzed by a rapid HPLC separation and UV-VIS detection. Briefly, the isocratic HPLC analysis for both Imatinib and INNO-406 were achieved on a C18 Zorbax column (150×4.6 mm, 5 um) (Phenomenex, Torrance, CA) with a simple mobile phase consisting of methanol and deionized water (50∶50% v/v/) at a flow rate of 1.0 ml/min. The effluents were monitored at 223 nm and quantified using the area under the peak from standard solutions dissolved in assay II buffer (0.4 to 25 µg/ml). Assay II buffer consisted of sodium chloride (122 mM), potassium chloride (3 mM), calcium chloride (1.4 mM), magnesium sulfate (1.2 mM), sodium bicarbonate (25 mM), HEPES (10 mM), d-glucose (10 mM) and potassium phosphate (0.4 mM) at Ph of 7.4.

[3] = tested on: MPTP-induced dopaminergic damage in C57BL/6 mice; assay: MPTP mouse model of PD: TH+ neuron stereology, striatal TH optical density, striatal dopamine; format: in vivo
[4] = tested on: c-Abl activation, parkin tyrosine phosphorylation, AIMP2 accumulation; assay: Immunoprecipitation/immunoblot of striatal lysates of MPTP-treated mice; format: in vivo, C57BL/6 mice; details: 10 mg/kg i.p. daily one week before and one week after MPTP; vs MPTP alone
SH-SY5Y cells = assay: Lactate dehydrogenase cytotoxicity assay, MPP+-treated cells; format: cell-based; details: 6 h pretreatment with 0.5 or 1.0 µM; MPP+ 500 µM; 24 h after exposure
Description: The release of lactate dehydrogenase for cytotoxicity was measured by LDH assay kit (Roche#11644793001). A 100 µL of the supernatant from treated cells was transferred to new 96-well plates. The plates were incubated for 30 min at room temperature on orbital shaker. A colorimetric absorbance was recorded at 490 nm with a reference wavelength of 650 nm using a micro plate reader for colorimetric detection (BioTek, USA). Each experiment was done in triplicate. Cytotoxicity is expressed in terms of percent relative to the basal lactate dehydrogenase release by untreated control cells where controls cells serve as 100 percent.
Figure 4 INNO-406 prevents dopaminergic depletion and c-Abl mediated parkin phosphorylation in mice striatum. (A) INNO-406 prevents MPTP-induced depletion of striatal dopamine and its metabolites DOPAC and HVA in adult male C57BL/J6 mice. Animals received INNO-406 (10 mg/kg, i.p.) as a single daily injection for 7 days before MPTP injection. […] The optical density quantification data as normalized amounts is presented. * Considered statistically significant from control (p<0.05). ** Considered statistically significant from MPTP (p<0.05). (C) Cytotoxicity plotted as a percentage of control as measured by LDH in SH-SY5Y cells treated with MPP^+ (500 µM). […] Differences among means were analyzed using one-way analysis of variance (ANOVA). […]

[5] = cited from earlier work
Bcr-Abl = details: preclinical studies; cited from earlier work
[6] = INNO-406 10 mg/kg i.p. without MPTP

Cc1ccc(NC(=O)c2ccc(CN3CC[C@H](N(C)C)C3)c(C(F)(F)F)c2)cc1Nc1nccc(-c2cncnc2)n1 [INNO-406]
Papp A→B at 10 µM [1]: 98 ± 6.74 ×10⁻⁶ cm/s | Papp B→A at 10 µM [1]: 94.5 ± 10.1 ×10⁻⁶ cm/s | Enhancement of apical-to-basolateral transport across BBMEC monolayers compared to Imatinib (BBMEC monolayers; apical-to-basolateral, vs Imatinib): approximately 7.5 fold | Apparent Permeability Ratio A → B/B→ A (BBMEC monolayers): 1.00±0.119 | Brain level of INNO-406 ([2]; 1 h after single injection of 10 mg/kg i.p.): 50 ng | Brain level of INNO-406 ([2]; 4 h after single injection of 10 mg/kg i.p.): 80 ng | Brain level of INNO-406 ([2]; 24 h after single injection of 10 mg/kg i.p.): 65 ng | Effect of multiple MPTP injections on brain levels of INNO-406 ([2]; MPTP 4×20 mg/kg i.p. at 2 h interval, INNO-406 2.5 or 10 mg/kg i.p., 1, 4, 24 h): not altered | Loss of TH staining intensity in striatum in MPTP mice that also received INNO-406 ([3]; 10 mg/kg i.p. daily one week before and after MPTP, relative to controls, MPTP alone 70% loss): 35% | Prevention (decrease) of loss of dopamine (and DOPAC, HVA) in the striatum ([3]; 10 mg/kg i.p. daily one week before and one week after MPTP 4×20 mg/kg i.p. every 2 h): 45% | MPTP-induced loss of TH+ neurons in the SNpc in mice also treated with INNO-406 ([3]; 10 mg/kg i.p. daily one week before and one week after MPTP 4×20 mg/kg, vs saline, MPTP alone 60–65% loss): 15–20% | Organization and intensity of TH-immunoreactive neurons in SNpc, INNO-406 alone vs saline [3, 6]: essentially similar | TH immunoreactivity within the striatum, INNO-406 alone vs control [3, 6]: similar | Striatal level of AIMP2 [4]: significant decreases | Striatal level of phospho-c-Abl [4]: significant decreases | Striatal level of phospho-parkin [4]: significant decreases | MPP+-induced cytotoxicity (LDH release) (SH-SY5Y cells): prevented | Entry into brain [5]: significantly enter brain | Potency relative to Imatinib in vivo (Bcr-Abl): ≥ 10 fold

Cc1ccc(NC(=O)c2ccc(CN3CCN(C)CC3)cc2)cc1Nc1nccc(-c2cccnc2)n1 [Imatinib]
Papp A→B at 10 µM [1]: 12.96 ± 0.07 ×10⁻⁶ cm/s | Papp B→A at 10 µM [1]: 63.86 ± 0.23 ×10⁻⁶ cm/s | Apparent Permeability Ratio A → B/B→ A (BBMEC monolayers): 0.20±0.001 | Brain bioavailability [5]: limited brain bioavailability | Capacity to cross blood-brain barrier [5]: minimal capacity to cross blood-brain barrier
